Tests used:
[1] = tested on: inflammatory cells (eosinophils); assay: Number of inflammatory cells in bronchoalveolar lavage fluid (Diff-Quick); format: in vivo, mouse; conditions: OVA asthma Balb/c mice, 5 or 15 mg/kg PO, FIG. 5
Procedure: (§1) 6 week old Balb/c female mice in the average weight of 20 g were adapted for 1 week. 2 mg of aluminum hydroxide (A8222, Sigma, St. Louis, Mo.) and 20 μg of ovalbumin (A5503, sigma, St. Louis, Mo.) were suspended in phosphate buffer (pH 7.4). Each mouse was administered with 200 μl of the phosphate buffer suspension via intraperitoneal injection for sensitization at 2 weeks intervals. The mouse was forced to inhale 1% ovalbumin (OVA) through ultrasonic atomizer for 30 minutes a day for 3 days after the first intraperitoneal injection of ovalbumin. 24 hours after the antigen administration, airway hyperreactivity was measured. 48 hours later, a lethal dose of pentobarbital (Entobar, Hanlim Pharma. Co., Ltd.) was administered to the mouse. The bronchus was opened and the alveoli were washed with 1.4 ml of saline. Then, the test samples were obtained. The normal control (NC) was not administered with ovalbumin nor inhaled. The asthma induced group (OVA) was administered with ovalbumin and inhaled to induce bronchial asthma. The comparative control was orally administered with dexamethasone (2 mg/kg, PO) one hour before the inhalation (DEX). […]
After performing the experiment of Experimental Example <3-1> above, the number of inflammatory cells in bronchoalveolar lavage fluid was measured by Diff-Quick staining.

[2] = tested on: interleukin 13; assay: Interleukin 13 in bronchoalveolar lavage fluid of asthma mice (ELISA); format: in vivo, mouse; conditions: OVA asthma Balb/c mice, 5 or 15 mg/kg PO, FIG. 3
Procedure: as §1, with “asthma.” for “asthma. The comparative control was orally administered with dexamethasone (2 mg/kg, PO) one hour before the inhalation (DEX).”
(§2) After performing the experiment of Experimental Example <3-1> above, Th2 cytokine (interleukin 5, 13) in bronchoalveolar was measured by sandwich type enzyme immunoassay. […] The content of each cytokine was measured using the kit according to the manufacturer's instruction.

[3] = tested on: Raw 264.7 (ATCC TIB71) cells; assay: Evaluation of cell survival rate of macrophages (MTT); format: cell-based, mouse; conditions: Raw 264.7, 10 μM, 24 hours
Procedure: Raw 264.7 (ATCC TIB71) cells, the mouse derived macrophages', were inoculated in a 96-well plate containing DMEM (Dulbecco's modified Eagle medium; Welgene, Korea) supplemented with 10% FBS (Fetal Bovine Serum), 2 mM glutamine, penicillin (100 unit/ml), and streptomycin (100 μg/ml) at the density of 1×10^4 cells/well. The cells were cultured in 5% CO2 at 37° C. for 4 hours to attach the cells onto the plate. Next, the cells were treated with each sample at different concentrations, followed by further culture for 24 hours. To investigate the cell survival rate, 5 mg/ml of MTT (3-(4,5-dimethylthiazol-2-yl)-2,5-diphenyltetrazoliumbromide, Amresco, OH, USA) was distributed thereto (10 μl/well), followed by culture for 4 hours. Then, the supernatant was eliminated. Formazan reduced from MTT by mitochondria was dissolved in 100 μl of DMSO and then OD570 was measured. 0.2% DMSO was used for the negative control.

[4] = tested on: interleukin 5; assay: Interleukin 5 in bronchoalveolar lavage fluid of asthma mice (ELISA); format: in vivo, mouse; conditions: OVA asthma Balb/c mice, 5 or 15 mg/kg PO, FIG. 2
Procedure: as §1, with “asthma.” for “asthma. The comparative control was orally administered with dexamethasone (2 mg/kg, PO) one hour before the inhalation (DEX).”
as §2

[5] = tested on: lung tissue sections; assay: Histopathological analysis of lung (H&E, PAS) in asthma mice; format: in vivo, mouse; conditions: OVA asthma Balb/c mice, 5 or 15 mg/kg PO
Procedure: as §1, with “asthma.” for “asthma. The comparative control was orally administered with dexamethasone (2 mg/kg, PO) one hour before the inhalation (DEX).”
To evaluate the level of mucus production by investigating the increase of the number of goblet cells, the mucus secretion cells, the lung was extracted from the mouse without bronchoalveolar lavage. […] The proliferation of goblet cells was evaluated by measuring the ratio of the goblet cells selected by the staining above in bronchial epithelial cells.

[6] = tested on: bronchial asthma induced animal model; assay: Airway hyperreactivity (Penh) in ovalbumin-induced bronchial asthma mice; format: in vivo, mouse; conditions: OVA asthma Balb/c mice, 5 or 15 mg/kg PO, FIG. 1
Procedure: as §1, with “inhaled.” for “inhaled. The asthma induced group (OVA) was administered with ovalbumin and inhaled to induce bronchial asthma. The comparative control was orally administered with dexamethasone (2 mg/kg, PO) one hour before the inhalation (DEX).”
After performing the experiment of Experimental Example <3-1> above, airway resistance was measured by using one chamber plethysmography (All Medicus, Seoul) to obtain Penh (enhanced pause) values which were the mathematically calculated numbers reflecting airway obstruction in order to measure airway hyperreactivity. To measure Penh value, basal value in normal breathing status was first measured. […]

[7] = tested on: interleukin-6 (IL-6) generation; assay: Inhibition of interleukin-6 (IL-6) generation in LPS-treated Raw 264.7 cells (ELISA); format: cell-based, mouse; conditions: Mus musculus, RAW264.7; Raw 264.7, LPS treated; read-out: Grades of IC50 on IL-6 generation
Procedure: Raw 264.7 cells were distributed by the same manner as described in Experimental Example <2-1>, and IL-6 included in the supernatant treated with each sample at different concentrations was measured by enzyme-linked immunosorbent assay (IL-6 ELISA kit, BD Bioscience, San Diego, Calif.).
Particularly, 10-fold diluted supernatant was distributed in a 96-well plate on which IL-6 antibody was attached, followed by adhesion for 2 hours. The supernatant remaining after the adhesion was washed with a washing buffer. The detection antibody and HRP were adhered on the washed plate for 1 hour. The remaining antibody was washed. Color development was induced by using TMB substrate. The reaction was terminated with sulfuric acid solution. Then, OD450 was measured. IL-6 in the supernatant was quantified by using the standard curve made with the standard IL-6 included in the kit. IL-6 suppression rate was calculated by measuring the same concentration that could inhibit IL-6 generation up to 50% in the LPS treated group and the results are shown in Table 8.

COc1cc(CCCO)cc2cc(-c3ccc(C)cc3)oc12 [Example 4, 3-(7-methoxy-2-p-tolylbenzofuran-5-yl)propane-1-ol]
infiltration of inflammatory cells (eosinophils) in bronchoalveolar lavage fluid [1]: efficiently reduce
content of interleukin 13 in bronchoalveolar lavage fluid [2]: significantly reduced
Grades of cell survival rate (%, in 10 μM) [3]: A (A: 90<A≤100)
content of interleukin 5 in bronchoalveolar lavage fluid [4]: significantly reduced
accumulation of inflammatory cells around bronchiole (H&E) ([5]; FIG. 6): significantly reduced
proliferation of goblet cells (PAS, mucus production) ([5]; FIG. 7): significantly reduced
Penh value (airway hyperreactivity) [6]: significantly reduced
IC50 [7]: ≤ 10 µM

Reference: US10053443B2, “2-phenylbenzofuran derivatives, method for preparing the same and use of the same for treating inflammatory disease” (KOREA RESEARCH INSTITUTE OF BIOSCIENCE AND BIOTECHNOLOGY, priority 2014, dated 2018)
